Measurements: patent US9115127B2 (AMGEN INC., priority 2010, dated 2015)

Molecular target: T1, wild-type human ALK (cytoplasmic domain, amino acids 1058-1620, N-terminal GST fusion) (Homo sapiens, UniProt Q9UM73)
T1 construct: The cytoplasmic domain (amino acids 1058-1620) of wild-type human ALK; GST (N); made in house; host or cells: SF9 insect cells
Assay: ALK Inhibition in Enzyme Assay (Lance TR-FRET kinase assay)
Assay type: biochemical
Procedure, shortened: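 TR-FRET read-out (Eu-W1024 PT66 anti-phosphotyrosine plus streptavidin-allophycocyanin, 320 nm excitation) quantified biotinylated peptide phosphorylation by the purified kinase. Reaction ran 90 minutes at room temperature before quenching with 20 mM EDTA in Tris pH 7.5 buffer with NaCl, BSA and Tween-20.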

T1 sequence (Q9UM73 1058-1620): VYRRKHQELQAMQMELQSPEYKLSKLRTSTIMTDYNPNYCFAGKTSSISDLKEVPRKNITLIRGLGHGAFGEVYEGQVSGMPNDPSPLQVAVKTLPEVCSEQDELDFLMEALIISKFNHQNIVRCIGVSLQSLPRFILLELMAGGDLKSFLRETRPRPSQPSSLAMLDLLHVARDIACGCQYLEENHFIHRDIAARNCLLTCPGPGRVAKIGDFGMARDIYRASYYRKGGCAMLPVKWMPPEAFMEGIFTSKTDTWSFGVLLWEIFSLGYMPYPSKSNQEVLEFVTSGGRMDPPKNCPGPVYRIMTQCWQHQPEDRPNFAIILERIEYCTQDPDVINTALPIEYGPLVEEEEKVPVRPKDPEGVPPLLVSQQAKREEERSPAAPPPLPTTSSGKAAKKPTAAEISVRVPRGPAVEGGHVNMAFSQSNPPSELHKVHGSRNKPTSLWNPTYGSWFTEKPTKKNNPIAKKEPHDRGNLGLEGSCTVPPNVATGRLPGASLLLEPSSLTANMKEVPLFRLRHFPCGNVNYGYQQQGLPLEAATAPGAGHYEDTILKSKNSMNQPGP

IC50 [µM]	SMILES
0.1 to 1	CC(C)NC(=O)[C@H]1CC[C@@H](n2/c(=N/C(=O)c3ccc(S(C)(=O)=O)cc3)[nH]c3cnc(OCCN4CCCCC4)cc32)CC1 [Example 120, (E)-N-(1-(cis-4-(Isopropylcarbamoyl)cyclohexyl)-6-(2-(piperidin-1-yl)ethoxy)-1H-imidazo[4,5-c]pyridin-2(3H)-ylidene)-4-(methylsulfonyl)benzamide]
0.05 to 0.1	CC(C)NC(=O)[C@H]1CC[C@@H](n2/c(=N/C(=O)c3cccc(OC(F)(F)F)c3)[nH]c3cnc(OCCN4CCCCC4)cc32)CC1 [Example 121, (E)-N-(1-(cis-4-(Isopropylcarbamoyl)cyclohexyl)-6-(2-(piperidin-1-yl)ethoxy)-1H-imidazo[4,5-c]pyridin-2(3H)-ylidene)-3-(trifluoromethoxy)benzamide]
0.1 to 1	CC(C)NC(=O)[C@H]1CC[C@@H](n2/c(=N/C(=O)c3ccc(C(N)=O)cc3)[nH]c3cnc(OCCN4CCCCC4)cc32)CC1 [Example 122, (E)-N-1-(1-(cis-4-(Isopropylcarbamoyl)cyclohexyl)-6-(2-(piperidin-1-yl)ethoxy)-1H-imidazo[4,5-c]pyridin-2(3H)-ylidene)terephthalamide]
< 0.05	N#Cc1ccc(C(=O)/N=c2\[nH]c3cnc(OCCN4CCCCC4)cc3n2[C@H]2CC[C@@H](C(=O)N3CCNCC3)CC2)cc1 [Example 123, (E)-4-Cyano-N-(1-(cis-4-(piperazine-1-carbonyl)cyclohexyl)-6-(2-(piperidin-1-yl)ethoxy)-1H-imidazo[4,5-c]pyridin-2(3H)-ylidene)benzamide]
< 0.05	CC(C)NC(=O)[C@H]1CC[C@@H](n2/c(=N/C(=O)c3cccc(F)c3)[nH]c3cnc(N4CCC(C(C)(C)O)CC4)cc32)CC1 [Example 125, (E)-3-Fluoro-N-(6-(4-(2-hydroxypropan-2-yl)piperidin-1-yl)-1-(cis-4-(isopropylcarbamoyl)cyclohexyl)-1H-imidazo[4,5-c]pyridin-2(3H)-ylidene)benzamide]
< 0.05	CC(C)NC(=O)[C@H]1CC[C@@H](n2/c(=N/C(=O)c3ccc(C#N)cc3)[nH]c3cnc(OCCO)cc32)CC1 [Example 126, (E)-4-Cyano-N-(6-(2-hydroxyethoxy)-1-(cis-4-(isopropylcarbamoyl)cyclohexyl)-1H-imidazo[4,5-c]pyridin-2(3H)-ylidene)benzamide]
< 0.05	CC(C)NC(=O)[C@H]1CC[C@@H](n2/c(=N/C(=O)c3ccc(F)cc3)[nH]c3cnc(OCCO)cc32)CC1 [Example 127, (E)-4-Fluoro-N-(6-(2-hydroxyethoxy)-1-(cis-4-(isopropylcarbamoyl)cyclohexyl)-1H-imidazo[4,5-c]pyridin-2(3H)-ylidene)benzamide]
< 0.05	CC(C)NC(=O)[C@H]1CC[C@@H](n2/c(=N/C(=O)c3ccc(F)cc3)[nH]c3cnc(OCCN4CCC(C(C)(C)O)CC4)cc32)CC1 [Example 128, (E)-4-Fluoro-N-(6-(2-(4-(2-hydroxypropan-2-yl)piperidin-1-yl)ethoxy)-1-(cis-4-(isopropylcarbamoyl)cyclohexyl)-1H-imidazo[4,5-c]pyridin-2(3H)-ylidene)benzamide]
< 0.05	CC(C)NC(=O)[C@H]1CC[C@@H](n2/c(=N/C(=O)c3ccc(C#N)cc3)[nH]c3cnc(OCCN4CCC(C(C)(C)O)CC4)cc32)CC1 [Example 129, (E)-4-Cyano-N-(6-(2-(4-(2-hydroxypropan-2-yl)piperidin-1-yl)ethoxy)-1-(cis-4-(isopropylcarbamoyl)cyclohexyl)-1H-imidazo[4,5-c]pyridin-2(3H)-ylidene)benzamide]
0.1 to 1	C=CCNS(=O)(=O)c1cccc(C(=O)/N=c2\[nH]c3cnc(OCCN4CCCCC4)cc3n2[C@H]2CC[C@H](C(=O)NC(C)C)CC2)c1 [Example 131, (E)-3-(N-Allylsulfamoyl)-N-(1-(trans-4-(isopropylcarbamoyl)cyclohexyl)-6-(2-(piperidin-1-yl)ethoxy)-1H-imidazo[4,5-c]pyridin-2(3H)-ylidene)benzamide]
0.1 to 1	CC(C)NC(=O)[C@H]1CC[C@@H](n2/c(=N/C(=O)NC3CCCCC3)[nH]c3cnc(OCCN4CCCCC4)cc32)CC1 [Example 132, cis-4-((E)-2-(Cyclohexylcarbamoylimino)-6-(2-(piperidin-1-yl)ethoxy)-2,3-dihydro-1H-imidazo[4,5-c]pyridin-1-yl)-N-isopropylcyclohexanecarboxamide]
0.1 to 1	CC(C)NC(=O)[C@H]1CC[C@@H](n2/c(=N/C(=O)N3CCOCC3)[nH]c3cnc(OCCN4CCCCC4)cc32)CC1 [Example 133, (E)-N-(1-(cis-4-(Isopropylcarbamoyl)cyclohexyl)-6-(2-(piperidin-1-yl)ethoxy)-1H-imidazo[4,5-c]pyridin-2(3H)-ylidene)morpholine-4-carboxamide]
0.05 to 0.1	CC(C)NC(=O)[C@H]1CC[C@@H](n2/c(=N/C(=O)N3CCCC3)[nH]c3cnc(OCCN4CCCCC4)cc32)CC1 [Example 134, (E)-N-(1-(cis-4-(Isopropylcarbamoyl)cyclohexyl)-6-(2-(piperidin-1-yl)ethoxy)-1H-imidazo[4,5-c]pyridin-2(3H)-ylidene)pyrrolidine-1-carboxamide]
< 0.05	NC(=O)[C@H]1CC[C@@H](n2/c(=N/C(=O)c3ccc(F)cc3)[nH]c3cnc(OCCN4CCCCC4)cc32)CC1 [Example 135, (E)-N-(1-(cis-4-Carbamoylcyclohexyl)-6-(2-(piperidin-1-yl)ethoxy)-1H-imidazo[4,5-c]pyridin-2(3H)-ylidene)-4-fluorobenzamide]
1 to 5	CC(C)NC(=O)[C@H]1CC[C@@H](n2c(N)nc3ccc(CN4CCC(C(C)(C)O)CC4)cc32)CC1 [Example 136, cis-4-(2-Amino-6-((4-(2-hydroxypropan-2-yl)piperidin-1-yl)methyl)-1H-benzo[d]imidazol-1-yl)-N-isopropylcyclohexanecarboxamide]
< 0.05	CC(C)NC(=O)[C@H]1CC[C@@H](n2/c(=N/C(=O)c3cccc(C(F)(F)F)c3)[nH]c3ccc(CN4CCC(C(C)(C)O)CC4)cc32)CC1 [Example 147, (E)-N-(6-((4-(2-Hydroxypropan-2-yl)piperidin-1-yl)methyl)-1-(cis-4-(isopropylcarbamoyl)cyclohexyl)-1H-benzo[d]imidazol-2(3H)-ylidene)-3-(trifluoromethyl)benzamide]
< 0.05	CC(C)NC(=O)[C@H]1CC[C@@H](n2/c(=N/C(=O)c3ccc(F)c(C(F)(F)F)c3)[nH]c3ccc(CN4CCC(C(C)(C)O)CC4)cc32)CC1 [Example 148, (E)-4-Fluoro-N-(6-((4-(2-hydroxypropan-2-yl)piperidin-1-yl)methyl)-1-(cis-4-(isopropylcarbamoyl)cyclohexyl)-1H-benzo[d]imidazol-2(3H)-ylidene)-3-(trifluoromethyl)benzamide]
< 0.05	COc1ccc(C(=O)/N=c2\[nH]c3ccc(CN4CCC(C(C)(C)O)CC4)cc3n2[C@H]2CC[C@@H](C(=O)NC(C)C)CC2)cc1 [Example 151, (E)-N-(6-((4-(2-Hydroxypropan-2-yl)piperidin-1-yl)methyl)-1-(cis-4-(isopropylcarbamoyl)cyclohexyl)-1H-benzo[d]imidazol-2(3H)-ylidene)-4-methoxybenzamide]
< 0.05	COc1ccc(COc2ccc3nc(NC(=O)c4ccc(F)cc4)n([C@H]4CC[C@@H](C(=O)NC(C)C)CC4)c3c2)cc1 [Example 153, 4-Fluoro-N-(6-((4-methoxybenzyl)oxy)-1-(cis-4-((1-methylethyl)carbamoyl)cyclohexyl)-1H-benzimidazol-2-yl)benzamide]
< 0.05	CC(C)NC(=O)[C@H]1CC[C@@H](n2/c(=N/C(=O)c3ccc(F)cc3)[nH]c3ccc(O)cc32)CC1 [Example 154, 4-Fluoro-N-(6-hydroxy-1-(cis-4-(isopropylcarbamoyl)cyclohexyl)-1H-benzo[d]imidazol-2-yl)benzamide]
< 0.05	CC(C)NC(=O)[C@H]1CC[C@@H](n2/c(=N/C(=O)c3ccc(F)cc3)[nH]c3ccc(OCCN4CCCCC4)cc32)CC1 [Example 155, (E)-4-Fluoro-N-(1-(cis-4-(isopropylcarbamoyl)cyclohexyl)-6-(2-(piperidin-1-yl)ethoxy)-1H-benzo[d]imidazol-2(3H)-ylidene)benzamide]
< 0.05	CC(C)NC(=O)[C@H]1CC[C@@H](n2/c(=N/C(=O)c3ccc(F)cc3)[nH]c3cnccc32)CC1 [Example 156, (E)-4-Fluoro-N-(1-(cis-4-(isopropylcarbamoyl)cyclohexyl)-1H-imidazo[4,5-c]pyridin-2(3H)-ylidene)benzamide]
< 0.05	COc1cc2c(cn1)[nH]/c(=N\C(=O)c1ccc(F)cc1)n2[C@H]1CC[C@@H](C(=O)NC(C)C)CC1 [Example 157, (E)-4-Fluoro-N-(1-(cis-4-(isopropylcarbamoyl)cyclohexyl)-6-methoxy-1H-imidazo[4,5-c]pyridin-2(3H)-ylidene)benzamide]
< 0.05	COCCOc1cc2c(cn1)[nH]/c(=N\C(=O)c1ccc(F)cc1)n2[C@H]1CC[C@@H](C(=O)NC(C)C)CC1 [Example 159, (E)-4-Fluoro-N-(1-(cis-4-(isopropylcarbamoyl)cyclohexyl)-6-(2-methoxyethoxy)-1H-imidazo[4,5-c]pyridin-2(3H)-ylidene)benzamide]
< 0.05	CC(C)NC(=O)[C@H]1CC[C@@H](n2/c(=N/C(=O)c3ccc(F)cc3)[nH]c3cnc(Cl)cc32)CC1 [Example 160, (E)-N-(6-Chloro-1-(cis-4-(isopropylcarbamoyl)cyclohexyl)-1H-imidazo[4,5-c]pyridin-2(3H)-ylidene)-4-fluorobenzamide]
< 0.05	CC(C)NC(=O)[C@H]1CC[C@@H](n2/c(=N/C(=O)c3ccc(F)cc3)[nH]c3ccc(OCCN4CCOCC4)cc32)CC1 [Example 161, (E)-4-Fluoro-N-(1-(cis-4-(isopropylcarbamoyl)cyclohexyl)-6-(2-morpholinoethoxy)-1H-benzo[d]imidazol-2(3H)-ylidene)benzamide]
